From article PMC10304470, “Characterization of the Antimicrobial Activities of Trichoplusia ni Cecropin A as a High-Potency Therapeutic against Colistin-Resistant Escherichia coli” (Pharmaceutics, 2023)
Where two headings read alike, the source gives them in different places. Ends that are not written are not given here. Peptide text beside a SMILES is read from it.

Columns and labels:
L-929 cells = experiment: Cytotoxicity, WST-8; format: cell-based, mouse; conditions: 24 h; for viability / survival rate: up to 100 μM peptide
Description: (§1) Murine macrophage RAW 264.7 cells and mouse fibroblast L-929 cells were used for research and were purchased from the Korea Cell Line Bank (Seoul, Republic of Korea). Both cells were cultured in Dulbecco’s Modified Eagle’s Medium (DMEM; Welgene, Gyeongsan, Republic of Korea) supplemented with 10% fetal bovine serum and 1% antibiotics (penicillin/streptomycin) at 37 °C in the presence of 5% CO2. To measure the cytotoxicities of peptides against RAW 264.7 cells and L-929 cells, both cell lines were seeded at a density of 1 × 10^5 cells/well in a 96-well plate, to which each concentration of peptide solution (from 1.6 μM to 100 μM) was added, followed by incubation for 22 h. Subsequently, WST-8 (Biomax Co., Ltd., Guri, Republic of Korea) was added at 10% volume of the final solution, and the mixture was incubated for an additional 2 h. Absorbance was measured at 450 nm. Percentages were calculated based on untreated cells.

[1] = tested on: Acinetobacter baumannii (KCCM 40203); format: cell-based
From the text: (§2) E. coli (KCTC 1682) was obtained from the Korean Collection for Type Cultures (KCTC, Jeongeup, Republic of Korea), and Acinetobacter baumannii (KCCM 40203) and Pseudomonas aeruginosa (KCCM 11328) from the Korea Culture Center of Microorganisms (KCCM, Seoul, Republic of Korea). Klebsiella pneumoniae (NCCP 16054), colistin-resistant E. coli NMA 1557 (ColREC 1557), NMS 12 (ColREC 12), and colistin-resistant A. baumannii NMS 1915 (ColRAB 1915), as well as colistin-resistant K. pneumoniae NMS 139 (ColRKP 139), were obtained from the National Institute of Health Multidrug Resistant Bacteria Specialized Pathogen Resources Bank (Osong, Republic of Korea).
(§3) The antibacterial abilities of the peptides (T. ni cecropin, cecropin A, polymyxin B, colistin, and melittin) were determined using the broth dilution method as previously reported. The peptides dissolved at 10 mg/mL in deionized water were serially diluted from 64 μM to 0.5 μM in 96-well plates using Mueller–Hinton (MH) broth, and bacteria cultured to exponential growth were added at 2 × 10^5 cells/mL. The group of bacteria that grew untreated in the broth was set as the positive control, and the uninoculated broth as the negative control. Dissolved peptides are colorless and equal to the OD value of the medium only. After 16 h incubation at 37 °C, the absorbance at 600 nm was measured using a SpectraMAX microplate reader (Molecular Devices, San Jose, CA, USA).

[2] = tested on: Klebsiella pneumoniae (NCCP 16054); format: cell-based
From the text: as §2, §3

[3] = tested on: colistin-resistant A. baumannii NMS 1915 (ColRAB 1915); conditions: MH broth, 2 × 10^5 cells/mL, 16 h, 37 °C, OD600, >95% killing
From the text: as §2
as §3, with “The” for “The antibacterial abilities of the peptides (T. ni cecropin, cecropin A, polymyxin B, colistin, and melittin) were determined using the broth dilution method as previously reported. The”

[4] = tested on: sheep red blood cells (sRBCs); experiment: Hemolysis; format: cell-based; conditions: 1 h, 37 °C
Description: Sheep red blood cells (sRBCs; KisanBio, Seoul, Republic of Korea) were added to three volumes of phosphate-buffered saline (PBS; 35 mM phosphate buffer containing 150 mM NaCl, pH 7.4) and centrifuged five times at 4 °C, 1000× g for 5 min, followed by a final suspension in PBS at 4% (w/v). Peptides serially diluted from 100 μM to 3.1 μM in PBS at 100 μL in a 96-well plate were prepared, and an equal volume of blood solution was added. After incubation at 37 °C for 1 h, the plates were centrifuged for 5 min at 4 °C, 1000× g. The absorbance of the supernatant was measured at 405 nm. The 100% hemolysis control was 0.1% Triton-X 100 added to the blood solution; the negative control was blood solution added to PBS.

[5] = tested on: colistin-resistant E. coli NMA 1557 (ColREC 1557); format: cell-based, Escherichia coli; conditions: MH broth, 2 × 10^5 cells/mL, 16 h, 37 °C, OD600, >95% killing
From the text: as §2, §3

[6] = tested on: colistin-resistant E. coli NMS 12 (ColREC 12); format: cell-based, Escherichia coli; conditions: MH broth, 2 × 10^5 cells/mL, 16 h, 37 °C, OD600, >95% killing
From the text: as §2, §3

[7] = tested on: colistin-resistant K. pneumoniae NMS 139 (ColRKP 139); format: cell-based, Klebsiella pneumoniae; conditions: MH broth, 2 × 10^5 cells/mL, 16 h, 37 °C, OD600, >95% killing
From the text: as §2, §3

RAW 264.7 cells = experiment: Cytotoxicity, WST-8; format: cell-based, mouse; conditions: 100 μM peptide, 24 h
Description: as §1

[8] = tested on: Pseudomonas aeruginosa (KCCM 11328); format: cell-based
From the text: as §2, §3

all bacterial strains = experiment: Average MIC over all strains and relative selective index; format: cell-based; conditions: 8 strains; MIC above 64 μM taken as 128 μM
Description: as §3

E. coli (KCTC 1682) = format: cell-based, Escherichia coli
From the text: as §2, §3

ColREC 12 = experiment: Biofilm inhibition assay, crystal violet; format: cell-based, Escherichia coli; conditions: ColREC 12, 2 μM peptide, 16 h
Description: (§4) To quantify the biofilm inhibitory activity of each peptide, ColREC 1557 and ColREC 12 were cultured in Luria–Bertani (LB) broth overnight and then sub-cultured in MH broth. Different concentrations of peptide (from 1 μM to 64 μM) were prepared in 96-well plates using MH broth (containing 0.2% glucose) and incubated with bacteria (2 × 10^5 cells/mL) at 37 °C for 16 h. After incubation, the culture medium was removed and methanol was added as a fixative for 15 min. The completely dried plates were stained for 2 h by adding 100 μL of staining solution (0.1% (w/v) crystal violet in 0.25% (v/v) acetic acid). The residual staining solution was gently rinsed off three times using distilled water. Subsequently, 90% ethanol was used to dissolve the dye, and absorbance was measured at 600 nm. The untreated bacterial group was used as a control to compare biofilm production rates.

[9] = Limulus amebocyte lysate (LAL) assay, LPS neutralization; format: biochemical; conditions: LPS 2 ng/mL, 10 min, 37 °C
Description: To investigate the LPS-neutralizing activity, LAL assays were performed according to the protocol provided in the LAL assay kit (ToxinSensor™ Chromogenic LAL Endotoxin Assay Kit; GenScript, Piscataway, NJ, USA). Briefly, peptides diluted from 50 μM to 1.6 μM in LAL reagent water were incubated with LPS (2 ng/mL) for 10 min at 37 °C. LAL enzyme was then added and incubated under the same conditions. Substrate was added to react, after which three kinds of stop solutions were added in order. Absorbance (545 nm) was measured and quantified using an endotoxin standard graph.

ColREC 1557 = format: cell-based, Escherichia coli; conditions: 16 h, crystal violet
Description: as §4

TLR4/MD-2 complex = target: T1, TLR4/MD-2 complex (Homo sapiens, UniProt O00206+Q9Y6Y9); experiment: Surface plasmon resonance (SPR); format: binding; conditions: Biacore T200, CM5 chip, PBS with 0.05% Tween 20, 25 °C, read-out: equilibrium constant (KD) for TLR4/MD2
T1 construct: purchased R&D Systems
T1 sequence (O00206 24-631 limits assumed): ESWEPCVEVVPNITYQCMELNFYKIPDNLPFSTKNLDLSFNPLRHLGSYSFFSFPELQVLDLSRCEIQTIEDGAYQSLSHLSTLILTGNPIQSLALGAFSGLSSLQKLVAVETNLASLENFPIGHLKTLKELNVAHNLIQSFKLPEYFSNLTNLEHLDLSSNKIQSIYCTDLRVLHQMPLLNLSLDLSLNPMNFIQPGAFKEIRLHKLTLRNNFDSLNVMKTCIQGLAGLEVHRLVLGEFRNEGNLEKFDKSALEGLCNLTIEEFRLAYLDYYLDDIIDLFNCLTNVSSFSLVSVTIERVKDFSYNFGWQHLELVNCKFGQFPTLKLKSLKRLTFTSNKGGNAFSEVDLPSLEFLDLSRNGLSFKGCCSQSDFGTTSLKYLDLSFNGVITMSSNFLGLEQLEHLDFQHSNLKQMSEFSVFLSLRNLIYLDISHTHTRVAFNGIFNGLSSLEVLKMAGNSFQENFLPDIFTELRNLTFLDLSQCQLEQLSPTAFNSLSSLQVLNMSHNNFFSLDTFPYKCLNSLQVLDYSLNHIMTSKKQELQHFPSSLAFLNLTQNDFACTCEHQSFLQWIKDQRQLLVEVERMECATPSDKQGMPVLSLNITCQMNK
T1 sequence (Q9Y6Y9 17-160 limits assumed): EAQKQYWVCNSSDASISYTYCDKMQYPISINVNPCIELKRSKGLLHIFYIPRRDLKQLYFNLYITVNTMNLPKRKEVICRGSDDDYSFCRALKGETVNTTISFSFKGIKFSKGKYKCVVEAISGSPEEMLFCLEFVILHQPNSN
Description: Binding affinity measurements of the peptide to TLR4/myeloid differentiation factor 2 (MD-2) protein (R&D Systems) were performed on a Biacore T200 instrument (GE Healthcare, Danderyd, Sweden). The receptor was covalently bound to the carboxymethylated sensor chip surface using standard NHS/EDC coupling procedures. The sensor chip (Sensor Chip CM5; Cytiva, MA, USA) was loaded with 30 μg/mL of protein in sodium acetate buffer (pH 4.0) to a resonance value of 2500. Measurements were performed at a flow rate of 30 μL/min with increasing concentrations of peptide dissolved in PBS containing 0.05% Tween 20 at 25 °C. Analysis was performed using Biacore T200 Evaluation Software 3.0 (GE Healthcare, Chicago, IL, USA).

[10] = A. baumannii, MH broth, 2 × 10^5 cells/mL, 16 h, 37 °C, OD600, >95% killing
[11] = K. pneumoniae, MH broth, 2 × 10^5 cells/mL, 16 h, 37 °C, OD600, >95% killing
[12] = P. aeruginosa, MH broth, 2 × 10^5 cells/mL, 16 h, 37 °C, OD600, >95% killing
[13] = E. coli, MH broth, 2 × 10^5 cells/mL, 16 h, 37 °C, OD600, >95% killing

Molecule | Minimal Inhibitory Concentration [1, 10] | Minimal Inhibitory Concentration [2, 11] | Minimal Inhibitory Concentration [3] | Minimal Inhibitory Concentration [5] | Minimal Inhibitory Concentration [6] | Minimal Inhibitory Concentration [7] | viability / survival rate (L-929 cells) | cell viability (RAW 264.7 cells) | GM (geometric mean, average MIC value of all bacterial strains) (all bacterial strains) | Minimal Inhibitory Concentration [8, 12] | inhibition of biofilm formation (ColREC 12) | Minimal Inhibitory Concentration (E. coli (KCTC 1682); [13]) | other results
CC[C@H](C)[C@H](NC(=O)CN)C(=O)NCC(=O)N[C@@H](C)C(=O)N[C@H](C(=O)N[C@@H](CC(C)C)C(=O)N[C@@H](CCCCN)C(=O)N[C@H](C(=O)N[C@@H](CC(C)C)C(=O)N[C@H](C(=O)N[C@H](C(=O)NCC(=O)N[C@@H](CC(C)C)C(=O)N1CCC[C@H]1C(=O)N[C@@H](C)C(=O)N[C@@H](CC(C)C)C(=O)N[C@H](C(=O)N[C@@H](CO)C(=O)N[C@@H](Cc1c[nH]c2ccccc12)C(=O)N[C@H](C(=O)N[C@@H](CCCCN)C(=O)N[C@@H](CCCNC(=N)N)C(=O)N[C@@H](CCCCN)C(=O)N[C@@H](CCCNC(=N)N)C(=O)N[C@@H](CCC(N)=O)C(=O)N[C@@H](CCC(N)=O)C(N)=O)[C@@H](C)CC)[C@@H](C)CC)[C@@H](C)O)[C@@H](C)O)C(C)C)C(C)C [melittin] | 4 µM | 32 µM | 2 µM | 2 µM | 2 µM | 32 µM |  |  |  |  |  |  | survival rate (L-929 cells; 1.6 μM peptide): below 5%; hemolytic activity ([4]; 3.1 μM peptide): 8.2%; hemolytic activity ([4]; 12.5 μM peptide): 84.3%
CC[C@H](C)CCCCC(=O)N[C@@H](CCN)C(=O)N[C@H](C(=O)N[C@@H](CCN)C(=O)N[C@H]1CCNC(=O)[C@H]([C@@H](C)O)NC(=O)[C@H](CCN)NC(=O)[C@H](CCN)NC(=O)[C@H](CC(C)C)NC(=O)[C@@H](Cc2ccccc2)NC(=O)[C@H](CCN)NC1=O)[C@@H](C)O [polymyxin B] (HELM PEPTIDE1{[CC[C@H](C)CCCCC(=O)[*:2]].[Dab].T.[Dab].[Dab].[Dab].[dF].L.[Dab].[Dab].T}$PEPTIDE1,PEPTIDE1,5:R3-11:R2$$$V2.0; N-terminus assumed; bridges inferred) |  |  | 64 µM | 8 µM | 4 µM | 64 µM | 96.0% | 31.3% | 17.88 µM |  |  |  | Minimal Inhibitory Concentration ([1]; KCCM 40203, 16 h): 0.5 µM; Minimal Inhibitory Concentration ([8]; KCCM 11328, 16 h): 2 µM; Minimal Inhibitory Concentration ([2]; NCCP 16054, 16 h): 0.25 µM; Minimal Inhibitory Concentration (E. coli (KCTC 1682); KCTC 1682, 16 h): 0.25 µM
KWKLFKKIEKVGQNIRDGIIKAGPAVAVVGQATQIAK-NH2 [cecropin A] | 2 µM | 1 µM | 1 µM | 1 µM | 1 µM | 2 µM |  |  | 2.25 µM | 8 µM | 80.8% | 2 µM | 
LL-37 |  |  |  |  |  |  |  |  |  |  |  |  | peptide concentration nearly neutralizing 10 enzyme units (EU) of LPS [9]: 12.5 µM
RWKFFKKIEKVGQNIRDGIIKAGPAVAVVGQAASITGK-NH2 [T. ni cecropin] | 1 µM | 1 µM | 1 µM | 1 µM | 1 µM | 2 µM | 95% | 93.6% | 1.63 µM | 4 µM | 82.5% | 2 µM | inhibition of biofilm formation (ColREC 1557; ColREC 1557, 2 μM peptide): 75.3%; inhibition of biofilm formation (ColREC 1557; ColREC 1557, 4 μM peptide): over 90%; hemolytic activity ([4]; 100 μM peptide): no hemolytic activity; Kd (TLR4/MD-2 complex): 558 nM
